# Reference: patent US20200399238A1, “THERAPEUTIC AURONES” (MIDDLE TENNESSEE STATE UNIVERSITY, priority 2016, published 2020)
# Experiments:
# S. cerevisiae = test: Antifungal microdilution broth assay, S. cerevisiae; format: cell-based; details: Saccharomyces cerevisiae; Table 5
# Source text: (§1) A microdilution broth method (CLSI, Reference Method for Broth Dilution Antifungal Susceptibility Testing of Yeasts, Approved Standard-Third Edition, Clinical Laboratory Standards Institute, Wayne, Pa., 2008) was followed with some modifications for the testing of potential antifungal compounds Corning CellGro RPMI 1640 with glutamine, without bicarbonate buffer, with phenol red (RPMI; Sigma-Aldrich) was used as the base medium for testing. A 1 M solution of morpholinepropanesulfonic acid (MOPS; Sigma-Aldrich) was added to the RPMI to a final concentration of 0.165 M for buffering (RPMI-MOPS). This medium was adjusted to a pH of 7.0 with 10 M NaOH and filter sterilized.
# (§2) PrestoBlue® (Life Technologies, Invitrogen, Carlsbad, Calif.), a resazurin-based cell viability reagent that, in metabolically active cells, is reduced from blue, non-fluorescent resazurin, to red, fluorescent resorufin, was used to assess inhibition of yeast growth by the aurones. Reduction of the compound from resazurin to resorufin is proportional to the number of metabolically active cells and can be quantified by measuring relative fluorescence units (RFUs). […]
# (§3) IC50 determination was calculated using GraphPad Prism version 7.01 for Windows (GraphPad Software, Inc., La Jolla, Calif.) from the RFUs at dilution points. […]
# T. rubrum = test: Antifungal microdilution broth assay, T. rubrum; format: cell-based; details: Trichophyton rubrum; Table 5
# Source text: as §1, §2, §3
# [1] = test system: PMA-differentiated THP-1 cells; test: Alamar Blue cell viability assay, THP-1; format: cell-based, human
# Protocol: THP-1 cells were maintained in RPMI 1640 medium supplemented with 10% heat-inactivated FBS and 1% penicillin/streptomycin (complete culture medium) at 37° C. with 5% CO2 supplemented. Cell concentrations were adjusted to desired concentrations for each experiment by centrifugation at 500×g for 5 min and resuspended in complete culture medium with 100 nM of PMA. Cell concentration was adjusted to 5×10^5 cells/ml for all assays with the exception of 2.5×10^5 cells/ml were used for NF-κB nuclear translocation assay. Cells were seeded onto 96-, 24-, or 12-well plates and incubated for 48 to 72 h to allow for differentiation. Cells were washed with serum-free RPMI 1640 medium before each experiment to remove undifferentiated cells. […] Cells were seeded into tissue culture plates at 10% confluence and grown to 80% confluence within 72 h. For live cell microscopy, 1×10^5 cells/ml were seeded into 35 mm glass-bottom (MatTek) dishes 24 h prior to imaging. For luciferase assays, 1.2×10^5 cells/well were seeded into 24-well tissue culture-treated plates.
# Following treatment, the relative cell viability was measured by Alamar Blue assay. For Alamar Blue assays, supernatants were replaced with culture medium containing 1× Alamar Blue reagent and incubated overnight. Cell viability was assessed by measuring relative fluorescent units (RFU) on the SpectraMax M2e microplate reader (Molecular Devices Inc., Sunnyvale, Calif., USA) at Ex 560 nm and Em 590 nm. The results were expressed as a percentage relative to LPS alone control cells. The effects of the vehicle control, DMSO, on cell viability were also assessed.
# Dexamethasone is a synthetic glucocorticoid that suppresses LPS-induced pro-inflammatory cytokine expression and was used as a control (Abraham, Lawrence et al. 2006). Supernatants were collected for human cytokine ELISAs and the manufacturer's protocol was followed to assess the cytokine response. Cells remaining after the supernatant collection were tested for relative viability by Alamar Blue cytotoxicity assay as previously described.
# TNFα mRNA = test: Quantitative RT-PCR of TNF-α transcription, THP-1; format: cell-based, human; details: 80 μM pre-treatment, LPS 4 h, differentiated THP-1
# Protocol: Transcription of TNF-α (NM 000594) and beta-2-microglobin, 132M (NM 004048), in 2.5×10^5 PMA-differentiated THP1 cells was investigated in cells without treatment, stimulated with […] Salmonella LPS, or pretreated for 1 hour with 1 μM dexamethasone or 80 μM aurone 1 followed by 4 hours of incubation with 20 ng/ml LPS. Total RNA was purified after 4 hours of LPS stimulation using the Maxwell 16 LEV simplyRNA Tissue Kit (Promega, WI, USA) per manufacturer's instructions (Jeffries, Kiss et al. 2014). Total RNA concentrations and the 260/280 nm ratios of each RNA sample were assessed using a NanoDrop 2000 UV-Vis spectrophotometer (Thermo Fisher Scientific, MA, USA). SYBR® FAST One-step qRT-PCR (KAPA Biosystems, MA, USA) was used to examine gene transcription after reaction optimization.
# QuantiTect® Primer Assay TNF (QT01079561) and B2M (Q300088935) primer (Qiagen, CA, USA) optimization studies, including melt curve analyses to confirm primer specificity and efficiency, were conducted to find appropriate running conditions (Fajardy, Moitrot et al. 2009). Briefly, the optimized conditions were 1 ng of total RNA added to 20 μl of reaction including 150 nM of forward and reverse primers. […] The fold change was calculated by using 2^−ΔΔct normalized to LPS alone (Schmittgen and Livak 2008).
# IKKβ, IκBα, p65 [2] = test: Western blot, IKK / IκBα / p65 phosphorylation, THP-1; details: 12.5, 25, 50 μM, LPS 15 min, dose-dependent
# Protocol: (§4) U0126 is a compound that inhibits MEK1/2 and was used as positive control for ERK phosphorylation inhibition (Hotokezaka, Sakai et al. 2002). Cells were lysed with radio-immunoprecipitation assay (RIPA) lysis buffer that contained a protease and phosphatase inhibitor cocktail. Cell lysates were then tested for protein concentration using a BCA protein assay and diluted with RIPA lysis buffer to normalize protein concentration in all samples. Lysates were mixed with sample loading buffer containing bromophenol blue, glycerol, SDS, and 2-mercaptoethanol. The separated proteins were then transferred onto a nitrocellulose membrane and blocked with 5% BSA in IX Tris-buffered saline with 0.1% Tween-20 for 1 h. The blots were incubated with primary antibodies at 4° C. overnight followed by incubation with HRP-conjugated secondary antibodies for 2 h at 22° C. The membranes were developed by addition of ECL substrate and images were collected with a ChemiDoc XRS+ system chemiluminescence imager (Bio-Rad, Hercules, Calif., USA). Western blot band intensity was quantified using Image Lab software (Bio-Rad, Hercules, Calif., USA). […]
# IKKβ, IκBα, p65 [3] = test: Western blot, IKK / IκBα / p65 phosphorylation, RAW 264.7; details: 12.5, 25, 50 μM, LPS 15 min, dose-dependent
# Protocol: as §4
SMILES,IC50 (S. cerevisiae) [µM],IC50 (T. rubrum) [µM],THP-1 cell viability (Alamar Blue) ([1]; 100 μM with LPS),"THP-1 cell viability (Alamar Blue) ([1]; 20, 40, 80 μM with LPS for 4 h)","Average % Viability (4 h with LPS) ([1]; THP-1 cells, 20 μM, 4 h with LPS, mean ± SD) [%]",reduction of TNFα mRNA levels (TNFα mRNA) [%],"phosphorylation of IKKβ, IκBα and p65 (IKKβ, IκBα, p65 [2])","phosphorylation of IKKβ, IκBα and p65 (IKKβ, IκBα, p65 [3])"
"COc1ccc(/C=C2\Oc3c(ccc(O)c3O)C2=O)cc1O [Aurone 1009, (Z)-6,7-dihydroxy-2-(3-hydroxy-4-methoxybenzylidene)benzofuran-3(2H)-one]",26,49,,,,,,
O=C1/C(=C/c2ccc(CO)o2)Oc2ccccc21 [aurone 1],,,less than 90%,no effect on cell viability,96.0 ± 0.6,49,suppress the phosphorylation of all three proteins,suppress the phosphorylation of all three proteins
